The values that follow come from US20240116985A1, “STAPLED PEPTIDES AND METHODS THEREOF” (priority 2020, published 2024).

The target of test [1] is T1, beta-catenin/TCF4 engagement (Homo sapiens, UniProt P35222).
T1 construct: expressed in transfected cells; host or cells: HEK293
T1 sequence (P35222 1-781): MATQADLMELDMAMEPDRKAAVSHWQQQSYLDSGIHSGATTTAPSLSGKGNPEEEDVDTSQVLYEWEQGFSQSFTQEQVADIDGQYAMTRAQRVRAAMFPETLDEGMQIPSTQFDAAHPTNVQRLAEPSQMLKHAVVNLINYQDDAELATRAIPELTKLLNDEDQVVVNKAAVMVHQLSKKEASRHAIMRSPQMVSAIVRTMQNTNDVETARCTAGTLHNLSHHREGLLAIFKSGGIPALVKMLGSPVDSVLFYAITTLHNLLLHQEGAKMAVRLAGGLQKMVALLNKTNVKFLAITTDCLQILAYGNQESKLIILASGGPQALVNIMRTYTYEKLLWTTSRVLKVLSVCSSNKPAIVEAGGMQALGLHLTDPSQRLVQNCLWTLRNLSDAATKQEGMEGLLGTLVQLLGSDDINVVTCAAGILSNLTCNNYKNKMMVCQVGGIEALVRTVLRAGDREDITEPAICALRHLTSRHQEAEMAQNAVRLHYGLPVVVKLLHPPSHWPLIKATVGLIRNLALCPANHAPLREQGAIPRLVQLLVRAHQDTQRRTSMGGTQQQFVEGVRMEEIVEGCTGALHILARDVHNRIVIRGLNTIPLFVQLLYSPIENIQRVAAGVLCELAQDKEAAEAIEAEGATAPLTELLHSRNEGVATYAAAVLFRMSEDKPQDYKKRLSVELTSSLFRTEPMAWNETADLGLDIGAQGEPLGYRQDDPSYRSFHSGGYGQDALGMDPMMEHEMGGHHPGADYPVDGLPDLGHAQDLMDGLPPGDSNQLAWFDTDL
Nature of the test: Nano-BRET target engagement assay (B-cat-Halo & TCF4-Luc in HEK293 cells). The class given is cell-based. The settings on record: absolute IC50; read-out: NanoBRET Abs IC50. On the technique in general: BRET reads energy transfer from a luciferase to a nearby fluorophore.

Test [2] has as its target T2, full-length beta-Catenin (Uniprot ID P35222) (Homo sapiens, UniProt P35222).
T2 construct: 10 nM full-length beta-Catenin (Uniprot ID P35222)
T2 sequence (P35222 1-781): T1 sequence (P35222 1-781)
Nature of the test: Fluorescence polarization IC50 (beta-catenin / 5FAM-TCF4 10-53 competition). It counts as binding. The settings on record: fluorescence polarization; read-out: beta-Catenin FP IC50. A general note: Polarisation of emitted light reports the rotation of a fluorescent probe.

For orientation: IC50 means the point on the concentration scale where inhibition reaches its midpoint. For the compound `CC(=O)N1CCC[C@]12CC=CCCCC1(CCCC=CCCCOC(=O)N3CC[C@@](C(=O)N[C@@H](Cc4ccsc4)C(=O)N[C@@H](Cc4ccc(F)c(Br)c4)C(=O)N[C@@H](CCC(N)=O)C(N)=O)(C3)NC(=O)[C@H](CC(C)C)NC(=O)[C@H](Cc3ccccc3)NC(=O)[C@H](C)NC(=O)[C@H](C)NC(=O)[C@H](Cc3cccc(C(=O)O)c3)NC(=O)[C@H](CC(=O)O)NC1=O)NC(=O)[C@H](CC(C)(C)C)NC(=O)[C@H](CC(=O)O)NC2=O` (stereo partly drawn) [I-2287, Ac-PL3-Asp-Npg-B5-Asp-3COOHF-Ala-Ala-Phe-Leu-PyrS2-3Thi-3Br4FF-Gln-NH2], the IC50 in test [1] was 7100 nM; in test [2], 7 nM.
Taken in the same sequence, the figures for `CC(=O)N1CCC[C@]12CC=CCCCC1(CCCC=CCCCOC(=O)N3CC[C@@](C(=O)N[C@@H](Cc4ccsc4)C(=O)N[C@@H](Cc4ccc(F)c(Br)c4)C(=O)N[C@@H](C)C(N)=O)(C3)NC(=O)[C@H](C(C)C)NC(=O)[C@H](Cc3ccccc3)NC(=O)[C@H](C)NC(=O)[C@H](CCC(N)=O)NC(=O)[C@H](Cc3cccc(C(=O)O)c3)NC(=O)[C@H](CC(=O)O)NC1=O)NC(=O)[C@H](CC(C)(C)C)NC(=O)[C@H](CC(=O)O)NC2=O` (stereo partly drawn) [I-2288, Ac-PL3-Asp-Npg-B5-Asp-3COOHF-Gln-Ala-Phe-Val-PyrS2-3Thi-3Br4FF-Ala-NH2] were 6700 nM and 5 nM.
The corresponding values for `CC(=O)N1CCC[C@]12CC=CCCCC1(CCCC=CCCCOC(=O)N3CC[C@@](C(=O)N[C@@H](Cc4ccccc4C(F)(F)F)C(=O)N[C@@H](Cc4ccc(F)c(Br)c4)C(=O)N[C@@H](CO)C(N)=O)(C3)NC(=O)[C@H](CC(C)C)NC(=O)[C@H](Cc3ccccc3)NC(=O)[C@H](C)NC(=O)[C@H](C)NC(=O)[C@H](Cc3cccc(C(=O)O)c3)NC(=O)[C@H](CC(=O)O)NC1=O)NC(=O)[C@H](CC(C)(C)C)NC(=O)[C@H](CC(=O)O)NC2=O` (stereo partly drawn) [I-2289, Ac-PL3-Asp-Npg-B5-Asp-3COOHF-Ala-Ala-Phe-Leu-PyrS2-2F3MeF-3Br4FF-Ser-NH2] are 9000 nM and 8 nM.
The corresponding values for `CC(=O)N1CCC[C@]12CC=CCCCC1(CCCC=CCCCOC(=O)N3CC[C@@](C(=O)N[C@@H](Cc4ccccc4C(F)(F)F)C(=O)N[C@@H](Cc4ccc(F)c(Br)c4)C(=O)N[C@@H](C)C(N)=O)(C3)NC(=O)[C@H](CC(C)C)NC(=O)[C@H](Cc3ccccc3)NC(=O)[C@H](C)NC(=O)[C@H](CCC(N)=O)NC(=O)[C@H](Cc3cccc(C(=O)O)c3)NC(=O)[C@H](CC(=O)O)NC1=O)NC(=O)[C@H](CC(C)(C)C)NC(=O)[C@H](CC(=O)O)NC2=O` (stereo partly drawn) [I-2290, Ac-PL3-Asp-Npg-B5-Asp-3COOHF-Gln-Ala-Phe-Leu-PyrS2-2F3MeF-3Br4FF-Ala-NH2] are 7900 nM and 14 nM.
Take `CC(=O)N1CCC[C@]12CC=CCCCC1(CCCC=CCCCOC(=O)N3CC[C@@](C(=O)N[C@@H](Cc4ccsc4)C(=O)N[C@@H](Cc4ccc(C)c(C)c4)C(=O)N[C@@H](CCC(N)=O)C(N)=O)(C3)NC(=O)[C@H](CC(C)C)NC(=O)[C@H](Cc3ccccc3)NC(=O)[C@H](C)NC(=O)[C@H](C)NC(=O)[C@H](Cc3cccc(C(=O)O)c3)NC(=O)[C@H](CC(=O)O)NC1=O)NC(=O)[C@H](CC(C)(C)C)NC(=O)[C@H](CC(=O)O)NC2=O` (stereo partly drawn) [I-2291, Ac-PL3-Asp-Npg-B5-Asp-3COOHF-Ala-Ala-Phe-Leu-PyrS2-3Thi-34MeF-Gln-NH2]: the IC50 in test [1] was 4900 nM; in test [2] it was 5 nM.
The corresponding values for `CC(=O)N1CCC[C@]12CC=CCCCC1(CCCC=CCCCOC(=O)N3CC[C@@](C(=O)N[C@@H](Cc4ccsc4)C(=O)N[C@@H](Cc4ccc(C)c(C)c4)C(=O)N[C@@H](C)C(N)=O)(C3)NC(=O)[C@H](C(C)C)NC(=O)[C@H](Cc3ccccc3)NC(=O)[C@H](C)NC(=O)[C@H](CCC(N)=O)NC(=O)[C@H](Cc3cccc(C(=O)O)c3)NC(=O)[C@H](CC(=O)O)NC1=O)NC(=O)[C@H](CC(C)(C)C)NC(=O)[C@H](CC(=O)O)NC2=O` (stereo partly drawn) [I-2292, Ac-PL3-Asp-Npg-B5-Asp-3COOHF-Gln-Ala-Phe-Val-PyrS2-3Thi-34MeF-Ala-NH2] are 2700 nM and 9 nM.
Taken in the same sequence, the figures for `CC(=O)N1CCC[C@]12CC=CCCCC1(CCCC=CCCCOC(=O)N3CC[C@@](C(=O)N[C@@H](Cc4ccccc4C(F)(F)F)C(=O)N[C@@H](Cc4ccc(C)c(C)c4)C(=O)N[C@@H](CO)C(N)=O)(C3)NC(=O)[C@H](CC(C)C)NC(=O)[C@H](Cc3ccccc3)NC(=O)[C@H](C)NC(=O)[C@H](C)NC(=O)[C@H](Cc3cccc(C(=O)O)c3)NC(=O)[C@H](CC(=O)O)NC1=O)NC(=O)[C@H](CC(C)(C)C)NC(=O)[C@H](CC(=O)O)NC2=O` (stereo partly drawn) [I-2293, Ac-PL3-Asp-Npg-B5-Asp-3COOHF-Ala-Ala-Phe-Leu-PyrS2-2F3MeF-34MeF-Ser-NH2] were 5700 nM and 15 nM.
Taken in the same sequence, the figures for `CC(=O)N1CCC[C@]12CC=CCCCC1(CCCC=CCCCOC(=O)N3CC[C@@](C(=O)N[C@@H](Cc4ccccc4C(F)(F)F)C(=O)N[C@@H](Cc4ccc(C)c(C)c4)C(=O)N[C@@H](C)C(N)=O)(C3)NC(=O)[C@H](CC(C)C)NC(=O)[C@H](Cc3ccccc3)NC(=O)[C@H](C)NC(=O)[C@H](CCC(N)=O)NC(=O)[C@H](Cc3cccc(C(=O)O)c3)NC(=O)[C@H](CC(=O)O)NC1=O)NC(=O)[C@H](CC(C)(C)C)NC(=O)[C@H](CC(=O)O)NC2=O` (stereo partly drawn) [I-2294, Ac-PL3-Asp-Npg-B5-Asp-3COOHF-Gln-Ala-Phe-Leu-PyrS2-2F3MeF-34MeF-Ala-NH2] were 4600 nM and 16 nM.
On to `CC(=O)N1CCC[C@]12CC=CCCCC1(CCCC=CCCCOC(=O)N3CC[C@@](C(=O)N[C@@H](Cc4ccsc4)C(=O)N[C@@H](Cc4ccc5c(c4)CCC5)C(=O)N[C@@H](CCC(N)=O)C(N)=O)(C3)NC(=O)[C@H](CC(C)C)NC(=O)[C@H](Cc3ccccc3)NC(=O)[C@H](C)NC(=O)[C@H](C)NC(=O)[C@H](Cc3cccc(C(=O)O)c3)NC(=O)[C@H](CC(=O)O)NC1=O)NC(=O)[C@H](CC(C)(C)C)NC(=O)[C@H](CC(=O)O)NC2=O` (stereo partly drawn) [I-2295, Ac-PL3-Asp-Npg-B5-Asp-3COOHF-Ala-Ala-Phe-Leu-PyrS2-3Thi-5IndA-Gln-NH2], for which the IC50 in test [1] is 3300 nM; in test [2], 5 nM.
Taken in the same sequence, the figures for `CC(=O)N1CCC[C@]12CC=CCCCC1(CCCC=CCCCOC(=O)N3CC[C@@](C(=O)N[C@@H](Cc4ccsc4)C(=O)N[C@@H](Cc4ccc5c(c4)CCC5)C(=O)N[C@@H](C)C(N)=O)(C3)NC(=O)[C@H](C(C)C)NC(=O)[C@H](Cc3ccccc3)NC(=O)[C@H](C)NC(=O)[C@H](CCC(N)=O)NC(=O)[C@H](Cc3cccc(C(=O)O)c3)NC(=O)[C@H](CC(=O)O)NC1=O)NC(=O)[C@H](CC(C)(C)C)NC(=O)[C@H](CC(=O)O)NC2=O` (stereo partly drawn) [I-2296, Ac-PL3-Asp-Npg-B5-Asp-3COOHF-Gln-Ala-Phe-Val-PyrS2-3Thi-5IndA-Ala-NH2] were 5100 nM and 6 nM.
As to `CC(=O)N1CCC[C@]12CC=CCCCC1(CCCC=CCCCOC(=O)N3CC[C@@](C(=O)N[C@@H](Cc4ccccc4C(F)(F)F)C(=O)N[C@@H](Cc4ccc5c(c4)CCC5)C(=O)N[C@@H](CO)C(N)=O)(C3)NC(=O)[C@H](CC(C)C)NC(=O)[C@H](Cc3ccccc3)NC(=O)[C@H](C)NC(=O)[C@H](C)NC(=O)[C@H](Cc3cccc(C(=O)O)c3)NC(=O)[C@H](CC(=O)O)NC1=O)NC(=O)[C@H](CC(C)(C)C)NC(=O)[C@H](CC(=O)O)NC2=O` (stereo partly drawn) [I-2297, Ac-PL3-Asp-Npg-B5-Asp-3COOHF-Ala-Ala-Phe-Leu-PyrS2-2F3MeF-5IndA-Ser-NH2], the IC50 turned out to be 5500 nM in test [1] and 68 nM in test [2].
Take `CC(=O)N1CCC[C@]12CC=CCCCC1(CCCC=CCCCOC(=O)N3CC[C@@](C(=O)N[C@@H](Cc4ccccc4C(F)(F)F)C(=O)N[C@@H](Cc4ccc5c(c4)CCC5)C(=O)N[C@@H](C)C(N)=O)(C3)NC(=O)[C@H](CC(C)C)NC(=O)[C@H](Cc3ccccc3)NC(=O)[C@H](C)NC(=O)[C@H](CCC(N)=O)NC(=O)[C@H](Cc3cccc(C(=O)O)c3)NC(=O)[C@H](CC(=O)O)NC1=O)NC(=O)[C@H](CC(C)(C)C)NC(=O)[C@H](CC(=O)O)NC2=O` (stereo partly drawn) [I-2298, Ac-PL3-Asp-Npg-B5-Asp-3COOHF-Gln-Ala-Phe-Leu-PyrS2-2F3MeF-5IndA-Ala-NH2]: the IC50 was 4600 nM in test [1] and 8 nM in test [2].
The corresponding values for `CCNC(=O)CC[C@H](NC(=O)[C@H](Cc1csc2ccccc12)NC(=O)[C@H](Cc1ccccc1C(F)(F)F)NC(=O)[C@]12CCN(C1)C(=O)OCCCC=CCCCC1(CCCC=CC[C@]3(CCCN3C(C)=O)C(=O)N[C@@H](CC(=O)O)C(=O)N[C@@H](CC(C)(C)C)C(=O)N1)C(=O)N[C@@H](CC(=O)O)C(=O)N[C@@H](Cc1cccc(C(=O)O)c1)C(=O)N[C@@H](CCC(=O)NCC)C(=O)N[C@@H](C)C(=O)N[C@@H](Cc1ccccc1)C(=O)N[C@@H](CC(C)C)C(=O)N2)C(N)=O` (stereo partly drawn) [I-2299, Ac-PL3-Asp-Npg-B5-Asp-3COOHF-[NHEt]GlnR-Ala-Phe-Leu-PyrS2-2F3MeF-BztA-NHEt]GlnR-NH2] are 5200 nM and 7 nM.
